The values that follow come from ChEMBL document CHEMBL1201862, “PubChem BioAssay data set” (2004).

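Step 1: Grow cells in 96-well plates. Step 2: Expose to compound for 48 hours at 5 concentrations. Step 3: Interpolate endpoints linearly; if unreached, use highest concentration. At the GI50, growth is halved.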 The source made the active and inactive calls. No stated cut-off is given here; in the data, active = GI50 up to about 1.1 µM and inactive = higher. A value given as a limit tells only on which side of the number the result lay.

Some test systems named below: 786-0; BT-549; CAKI-1; CCRF-CEM; EKVX; HCC 2998; HCT-116; HT-29; KM12; LOX IMVI; MCF7; NCI-H522; SF-539; SK-MEL-5; SK-OV-3; SNB-19; SNB-75; TK-10; UACC-257; UACC-62.
Common to all, as to experiment: DTP human tumour cell line panel, 48 h

For orientation: GI50 means the concentration that inhibits growth by half. Regarding `COc1cc2c(cc1OC)[C@H]1CN3CCC[C@H]3C=C1c1ccc(OC)c(O)c1-2`, the 50% growth inhibitory concentration (GI50) with 786-0 was 0.000728 µM (active); in the test with BT-549, 0.0195 µM (active); in the test with CAKI-1 it was < 0.0001 µM (active); with CCRF-CEM, 0.000422 µM (active); in the test with EKVX it was 0.000883 µM (active); in the test with HCC 2998 it was 0.0029 µM (active). For the same molecule, the 50% growth inhibitory concentration (GI50) with HCT-116 was 0.000452 µM (active); in the test with HT-29, 0.000656 µM (active); in the test on KM12, 0.000519 µM (active); with LOX IMVI it was 0.000329 µM (active); in the test with MCF7 it was 0.00404 µM (active); in the test on NCI-H522, 0.000487 µM (active). Further, the GI50 with SF-539 was 0.000711 µM (active); in the test on SK-MEL-5, 0.000539 µM (active); in the test on SK-OV-3, < 0.0001 µM (active); in the test with SNB-19, < 0.0001 µM (active); with SNB-75 it was 0.000566 µM (active); with TK-10, 0.000998 µM (active). Besides, the concentration for 50% growth inhibition (GI50) in the test with UACC-257 was 0.000681 µM (active); in the test on UACC-62, < 0.0001 µM (active).
In the case of `COc1ccc(/C=C2\CCC(CN(C)C)C2=O)cc1OC` (stereo not given), the GI50 in the test with 786-0 is 3.34 µM (inactive); in the test on BT-549, 5.43 µM (inactive); in the test on CAKI-1 it was 4.8 µM (inactive); with CCRF-CEM, 1.32 µM (inactive); with EKVX, 16.1 µM (inactive); in the test with HCC 2998 it was 5.83 µM (inactive). For the same molecule, the GI50 with HCT-116 is 2.3 µM (inactive); in the test on HT-29 it was 5.61 µM (inactive); in the test with KM12, 2.37 µM (inactive); in the test with LOX IMVI, 1.91 µM (inactive); in the test with MCF7, 2.56 µM (inactive); with NCI-H522 it was 1.95 µM (inactive). For the same molecule, the GI50 in the test with SF-539 is 10.5 µM (inactive); in the test with SK-MEL-5, 10.1 µM (inactive); in the test on SK-OV-3, 19.1 µM (inactive); in the test on SNB-19 it was 16.5 µM (inactive); in the test with SNB-75 it was 8.49 µM (inactive); in the test on TK-10 it was 7.14 µM (inactive). Also, the GI50 with UACC-257 is 5.41 µM (inactive); in the test with UACC-62, 5.46 µM (inactive).
As for `CC(=O)OCC1OC(n2c(N)c(C#N)c(C)c(C#N)c2=S)C(OC(C)=O)C(OC(C)=O)C1OC(C)=O` (stereo not given), the GI50 in the test with 786-0, in the test on BT-549, in the test on CAKI-1, in the test on CCRF-CEM, in the test with EKVX and with HCC 2998 was > 100 µM (inactive) in each case. Besides, the GI50 in the test with HCT-116, with HT-29, with KM12, in the test with LOX IMVI, in the test with MCF7 and in the test with NCI-H522 was > 100 µM (inactive) throughout. Further, the GI50 in the test with SF-539, with SK-MEL-5, in the test on SK-OV-3, with SNB-19, with SNB-75 and in the test on TK-10 was > 100 µM (inactive) each time. Further, the GI50 in the test with UACC-257 and in the test on UACC-62 was > 100 µM (inactive) throughout.
On to `C/C(=N\Nc1nc2ccccc2n1C)c1cnccn1`, for which the GI50 is 0.0671 µM (active) in the test with 786-0; 5.25 µM (inactive) with BT-549; 0.0348 µM (active) in the test with CAKI-1; 0.0513 µM (active) in the test on CCRF-CEM; 0.0424 µM (active) in the test on EKVX; 1.33 µM (inactive) with HCC 2998. The GI50 in the test with HCT-116 is 0.0265 µM (active); in the test with HT-29 it was 0.0418 µM (active); in the test on KM12, 0.824 µM (active); in the test with LOX IMVI, 0.129 µM (active); in the test with MCF7 it was 0.0246 µM (active); in the test with NCI-H522, 0.129 µM (active). Further, the GI50 is 0.692 µM (active) with SF-539; 0.154 µM (active) with SK-MEL-5; 0.292 µM (active) with SK-OV-3; 2.73 µM (inactive) in the test with SNB-19; 5.13 µM (inactive) in the test on SNB-75; 0.0703 µM (active) with TK-10. Moreover, the GI50 in the test on UACC-257 was 0.0483 µM (active); with UACC-62 it was 0.366 µM (active).
`COC(=O)c1cnc(Cl)c([N+](=O)[O-])c1`: the GI50 in the test with 786-0 is 3.57 µM (inactive); in the test on BT-549, 17.9 µM (inactive); with CAKI-1, 11.2 µM (inactive); with CCRF-CEM, 2.11 µM (inactive); in the test with EKVX, 1.8 µM (inactive); in the test with HCC 2998 it was 8.34 µM (inactive). Also, the GI50 is 2.77 µM (inactive) in the test with HCT-116; 14.3 µM (inactive) in the test on HT-29; 17.4 µM (inactive) with KM12; 1.93 µM (inactive) with LOX IMVI; 2.12 µM (inactive) in the test with MCF7; 1.64 µM (inactive) in the test with NCI-H522. The GI50 was 16.6 µM (inactive) in the test with SF-539; 14.1 µM (inactive) with SK-MEL-5; 19.3 µM (inactive) with SK-OV-3; 18.5 µM (inactive) in the test on SNB-19; 20.4 µM (inactive) with SNB-75; 16.3 µM (inactive) in the test with TK-10. The GI50 is 7.41 µM (inactive) in the test with UACC-257 and 16.8 µM (inactive) with UACC-62.
As for `C=C1C(=O)O[C@@H]2C[C@@]3(C)CC(=O)C=C(C)[C@@H]3C[C@H]12`, the GI50 was 12.4 µM (inactive) with 786-0; 10.8 µM (inactive) in the test on BT-549; 8.36 µM (inactive) in the test with CAKI-1; 5.83 µM (inactive) in the test with CCRF-CEM; 12.2 µM (inactive) in the test with EKVX; 14.2 µM (inactive) in the test with HCC 2998. In addition, the GI50 is 5.32 µM (inactive) in the test on HCT-116; 6.14 µM (inactive) in the test with HT-29; 18.6 µM (inactive) in the test on KM12; 13.9 µM (inactive) in the test with LOX IMVI; 3.22 µM (inactive) with MCF7; 4.46 µM (inactive) with NCI-H522. In addition, the GI50 in the test with SF-539 is 13.3 µM (inactive); in the test with SK-MEL-5, 10 µM (inactive); in the test with SK-OV-3, 37.9 µM (inactive); in the test on SNB-19, 17.3 µM (inactive); with SNB-75, 16.1 µM (inactive); with TK-10, 10.2 µM (inactive). The GI50 was 12.2 µM (inactive) in the test on UACC-257 and 14.6 µM (inactive) with UACC-62.
For `Clc1cc(OC23CC4CC(CC(C4)C2)C3)nc(Cl)n1`, the GI50 in the test with 786-0 is > 100 µM (inactive); in the test with BT-549, > 100 µM (inactive); in the test on CAKI-1 it was 1.94 µM (inactive); with CCRF-CEM it was 23.6 µM (inactive); with EKVX it was 37.5 µM (inactive); with HCC 2998, 12.9 µM (inactive). Besides, the GI50 is 46.3 µM (inactive) with HCT-116; 28.9 µM (inactive) in the test on HT-29; > 100 µM (inactive) with KM12; 17 µM (inactive) with LOX IMVI; 55.7 µM (inactive) with MCF7; 90.2 µM (inactive) in the test with NCI-H522. For the same molecule, the GI50 in the test on SF-539 is > 100 µM (inactive); in the test on SK-MEL-5, 38.8 µM (inactive); with SK-OV-3, > 100 µM (inactive); in the test with SNB-19 it was > 100 µM (inactive); with SNB-75 it was 64.6 µM (inactive); with TK-10, > 100 µM (inactive). In addition, the results for the GI50 with UACC-257 and in the test with UACC-62 were 39 µM (inactive) and 52.4 µM (inactive), respectively.
Regarding `C/C(=N\O)c1ccc(Nc2c3ccccc3nc3occc23)cc1`, the GI50 with 786-0 is 0.51 µM (active); with BT-549, 0.366 µM (active); with CAKI-1, 0.231 µM (active); in the test on CCRF-CEM it was 0.184 µM (active); in the test with EKVX, 5.82 µM (inactive); in the test with HCC 2998, 0.316 µM (active). The GI50 in the test on HCT-116 was 0.185 µM (active); with HT-29, 0.199 µM (active); in the test on KM12, 0.231 µM (active); in the test on LOX IMVI, 0.29 µM (active); in the test on MCF7 it was 0.18 µM (active); in the test with NCI-H522, 0.103 µM (active). Also, the GI50 was 0.169 µM (active) in the test with SF-539; 0.222 µM (active) in the test on SK-MEL-5; 0.421 µM (active) in the test on SK-OV-3; 0.603 µM (active) in the test on SNB-19; 0.662 µM (active) with SNB-75; 1.17 µM (inactive) in the test on TK-10. Moreover, the GI50 in the test on UACC-257 is 7.26 µM (inactive); in the test on UACC-62, 0.228 µM (active).
